ChEMBL document CHEMBL1154562, “Malevamides A-C, new depsipeptides from the marine cyanobacterium Symploca laete-viridis” (J Nat Prod, 2000)
Calls of active or inactive are those of the source.

Assays:
Assay type in all cases: functional, cell-based
[1] = test system: P388; test: Cytotoxicity against mouse P388 cells at 2 ug/mL
[2] = test system: HT-29; test: Cytotoxicity against human HT29 cells at 2 ug/mL
[3] = test system: A549; test: Cytotoxicity against human A549 cells at 2 ug/mL

Measured: Activity

CCCC1NC(=O)[C@H](Cc2ccccc2)N(C)C(=O)[C@@H]2CCCN2C(=O)C(C(C)C)N(C)C(=O)[C@@H]2CCCN2C(=O)[C@H]([C@@H](C)CC)NC(=O)C(C(C)C)N(C)C(=O)[C@@H]2CCCN2C(=O)C(C(C)C)N(C)C(=O)C(C(C)C)N(C)C(=O)[C@H](C(C)C)NC(=O)[C@H](C)N(C)C(=O)[C@@H](C(C)C)OC(=O)C1C (some centres undefined)
inactive: all assays above

CCCCC(C)C(=O)N1CCC[C@H]1C(=O)N(C)C(Cc1ccccc1)C(=O)NCC(=O)N(C)[C@@H](C(=O)N[C@H](C(=O)NCC(=O)N(C)C(Cc1ccccc1)C(=O)N1CCC[C@@H]1C(=O)OC)[C@@H](C)CC)C(C)C (some centres undefined)
inactive: all assays above

C#CCCCC1NC(=O)[C@H]([C@@H](C)CC)N(C)C(=O)[C@@H]2CCCN2C(=O)[C@@H]2CCCN2C(=O)[C@H](CC(C)C)NC(=O)[C@H](C(C)C)N(C)C(=O)[C@H](C)NC(=O)[C@@H](C)N(C)C(=O)[C@H](Cc2ccccc2)N(C)C(=O)[C@H](COC)N(C)C(=O)[C@H](C(C)C)N(C)C(=O)[C@@H]2CCCN2C(=O)[C@H](C)NC(=O)[C@H](C(C)C)OC(=O)C1C (some centres undefined)
inactive: all assays above
